Assay [1] has as its system HCT-116 colon cancer cells. Put plainly: Cell Glo luminescence cell growth assay, HCT-116. Type of assay: cell-based, human. The note with it: NS = not statistically significant; for inhibition at 1 µM: Homo sapiens, HCT-116, 24 h, read-out: Effectiveness to suppress HCT-116 cell growth (cell growth inhibition); for Effectiveness to suppress HCT-116 cell growth (cell growth inhibition): 1 uM, 24 h.

In assay [2] the test system is MIA PaCa-2 pancreatic cancer cells. The assay can be described thus: Cell Glo luminescence cell growth assay, MIA PaCa-2. It is filed as cell-based, human. The note with it: NS = not statistically significant; for inhibition at 50 µM: Homo sapiens, MIA PaCa-2, 24 h, read-out: Effectiveness to suppress MIA PaCa-2 cell growth (cell growth inhibition); for Effectiveness to suppress MIA PaCa-2 cell growth (cell growth inhibition): 50 uM, 24 h. An excerpt:
The CellTiter-Glo® Luminescent Cell Viability Assay (Promega Corporation; Madison, WI) is a homogeneous method of determining the number of viable cells in culture based on quantitation of the ATP present, an indicator of metabolically active cells. The homogeneous assay procedure involves adding the single reagent (CellTiter-Glo® Reagent) directly to cells cultured in serum-supplemented medium. The homogeneous “add-mix-measure” format results in cell lysis and generation of a luminescent signal proportional to the amount of ATP present. The amount of ATP is directly proportional to the number of cells present in culture.
Cancer cells (3,000 cells/well) were harvested in a 96-well plate. Then, the cancer cells were treated with GS compounds and incubated for 24 hours. The MT Cell Viability Substrate, NanoLuc® Enzyme and cell culture medium was equilibrated to 37° C. The 2× RealTime-Glo™ reagent was prepared by diluting the MT Cell Viability Substrate and NanoLuc® Enzyme in 37° C. cell culture medium to a 2× concentration for each reagent. For example, 1 mL of 2× RealTime-Glo™ reagent was prepared by adding 2 μL of MT Cell Viability Substrate, 1,000×, and 2 μL of NanoLuc® Enzyme, 1,000×, to 996 μL of cell culture medium to form the 2× RealTime-Glo™ reagent. Then, an equal volume of 2× RealTime-Glo™ reagent was added to the cancer cells. The cells were kept for ˜20 minutes in the cell culture incubator and then luminescence was measured by using a plate-reading luminometer.
MIA PaCa-2 is a human pancreatic ductal adenocarcinoma cell line derived from the carcinoma of a person.
The effects of exemplary compounds on cancer cell lines and one non-tumorigenic cell line (control) were investigated using a high throughput screening assay. More specifically, the effects of the GS compounds on cell growth was evaluated by the XTT assay for cell lines HepG2, HeLa, MCF7 ER+, MDA-MB-231, and MKN-45, and by the Cell Glo luminescence assay for cell lines MIA PaCa-2, HCT-116, MCF-10A, and PANC-1.

Assay [3] in a line: DPPH radical scavenging assay. Type of assay: biochemical. The note with it: NS = not statistically significant. The procedure: The method of assessing the antioxidant capacity through the binding of the stable DPPH. radical was performed for the first time by Brand-Williams et al. in 1995 (Brand-William, W. et al., Lebensm Wiss Technol, 1995, 28: 25-30, “Use of a free radical method to evaluate antioxidant activity”). The method used herein is a variation of the original method and is one of the most characteristic and simple methods for the initial assessment of the antioxidant activity of antioxidant molecules or extracts rich in compounds with antioxidant properties.
The assessment of antioxidant capacity is based on the interaction of the tested molecules with the stable radical of 2,2-diphenyl-1-picrylydrazyl (DPPH). The DPPH. radical can be inactivated either by the addition of an electron or by a hydrogen atom. It is a stable organic nitrogen radical that is purple in color and absorbs at 517 nm. When a substance with antioxidant activity is added to the radical solution, then 2,2-diphenyl-1-picrylydrazyl (DPPH.) is reduced by the addition of a hydrogen atom (or electron) and converted to 2,2-diphenyl-1-picrylhydrazine (DPPH) which has a yellow color, resulting in reduction to the visual absorption (FIG. 2).
The effects of GS compounds on DPPH radical was evaluated as described previously (Spanou, C et al., Anticancer Research, 2007, 27: 3403-3410). Briefly, the assay was carried out in 1 mL of methanol containing 100 μM freshly made DPPH in methanol and the tested GS compound at different concentrations. The contents were vigorously mixed, incubated at room temperature in the dark for 20 minutes and the absorbance was read at 517 nm using a Hitachi U-1500 Spectrophotometer (San Jose, USA). In each experiment, the tested extract alone in methanol was used as blank and DPPH alone in methanol was used as control. […] The radical scavenging capacity (RSC) of the tested extracts was expressed as a percentage of DPPH elimination calculated according to the following equation: % RSC=[(absorbance of control−absorbance of GS compound)/absorbance of control]×100.
(In general: DPPH is a stable violet radical that fades when it is reduced.)

The structures appear in SMILES notation.

For the compound `C/C=C(/C=O)[C@@H](CC=O)CC(=O)OCCc1ccc(O)cc1` [GS19, (3S,4E)-4-formyl-3-(2-oxoethyl)-4-hexenoic acid 2-(4-hydroxyphenyl)ethyl ester, reference compound], the inhibition at 1 µM in assay [1] turned out to be 21.6%. Also, the inhibition at 50 µM in assay [2] stood at 30%.

On to `C/C=C(/C=O)[C@@H](CC=O)CC(=O)SCCc1ccccc1` [GS27, S-phenethyl (3S,4E)-4-formyl-3-(2-oxoethyl)hex-4-enethioate], for which, in assay [1], the “Effectiveness to suppress HCT-116 cell growth (cell growth inhibition)” value is “suppressive activity” and the inhibition at 1 µM was 56.5%. In assay [2], the “Effectiveness to suppress MIA PaCa-2 cell growth (cell growth inhibition)” value is on record as “best efficacy” and the inhibition at 50 µM came to 91%.

With `C/C=C1/[C@H](OC2OC(CO)C(O)C(O)C2O)OC=C(C(=O)O)[C@H]1CC(=O)OCCc1ccc(O)c(O)c1` (stereo in doubt) [GS6, (2S,4S,E)-4-(2-(3,4-dihydroxyphenethoxy)-2-oxoethyl)-3-ethylidene-2{[(2R,3S,4R,5R,6S)-3,4,5-trihydroxy-6-(hydroxymethyl)tetrahydro-2H-pyran-2-yl]oxy}-3,4dihydro-2H-pyran-5-carboxylic acid], the “DPPH Radical Scavenging Assay IC50” value in assay [3] stood at 5.9 μg extract/mL.

On to `C/C=C(/C=O)[C@@H](CC=O)CC(=O)OCCOc1ccccc1` [GS24, (3S,4E)-4-formyl-3-(2-oxoethyl)-4-hexenoic acid 2-phenoxyethyl ester], for which, in assay [2], the inhibition at 50 µM was 28%.

With `C/C=C(/C=O)[C@@H](CC=O)CC(=O)OCCCCCCCCCCCCCCCC` [GS26, (3S,4E)-4-formyl-3-(2-oxoethyl)-4-hexenoic acid hexadecyl ester], in assay [1], the “Effectiveness to suppress HCT-116 cell growth (cell growth inhibition)” value is given as “suppressive activity” and the inhibition at 1 µM stood at 36.3%. For the same compound, in assay [2], the “Effectiveness to suppress MIA PaCa-2 cell growth (cell growth inhibition)” value is recorded as “best efficacy” and the inhibition at 50 µM turned out to be 70%.

In the case of `C/C=C(/C=O)[C@@H](CC=O)CC(=O)OCCc1ccc(O)c(O)c1` [GS17, (3S,4E)-4-formyl-3-(2-oxoethyl)-4-hexenoic acid 2-(3,4-dihydroxyphenyl)ethyl ester, reference compound], the “DPPH Radical Scavenging Assay IC50” value in assay [3] is listed as 11.5 μg extract/mL.

Consider `C/C=C1/[C@H](O[C@@H]2O[C@H](CO)[C@@H](O)[C@H](O)[C@H]2O)OC=C(C(=O)OC)[C@H]1CC(=O)OCCc1ccc(O)c(O)c1` [GS1, oleuropein], for which the “DPPH Radical Scavenging Assay IC50” value in assay [3] is given as 13.8 μg extract/mL.

For the compound `C/C=C(/C=O)[C@@H](CC=O)CC(=O)OCCCSC` [GS28, (3S,4E)-4-formyl-3-(2-oxoethyl)-4-hexenoic acid 3-(methylthio)propyl ester], in assay [1], the “Effectiveness to suppress HCT-116 cell growth (cell growth inhibition)” value is “suppressive activity” and the inhibition at 1 µM came to 34.4%. For the same compound, in assay [2], the “Effectiveness to suppress MIA PaCa-2 cell growth (cell growth inhibition)” value is given as “best efficacy” and the inhibition at 50 µM came to 79%.

A word on the inhibition: it is the drop in the measured response relative to a control, in per cent.

These data come from US12414960B2, “Analogues of oleuropein and oleacein and uses thereof” (Attica Sciences Ltd., priority 2020, dated 2025).
